Measured values taken from US20240148821A1, “PHARMACEUTICAL USE OF CYCLIC PEPTIDE COMPOUND” (CHUGAI SEIYAKU KABUSHIKI KAISHA, priority 2021, published 2024).
Numbered stars: 1 amine (or outer) side, 2 acyl side, 3 side chain; on linkers, the order of the positions; unused ones are H or OH. Bridge positions count the residues as written; N and C are the ends. Square brackets hold non-standard residues; d marks the D form. Peptide text beside a SMILES is read from it. * marks the point of attachment. hPhe(3,5-F2-4-CF3) = N[C@@H](CCc1cc(F)c(C(F)(F)F)c(F)c1)C(=O)O; hPhe(3-Cl-4-CF3) = N[C@@H](CCc1ccc(C(F)(F)F)c(Cl)c1)C(=O)O; NMePhe(4-CF3) = CN[C@@H](Cc1ccc(C(F)(F)F)cc1)C(=O)O; hPhe(4-CF3) = N[C@@H](CCc1ccc(C(F)(F)F)cc1)C(=O)O; NEtPhe(4-Me) = CCN[C@@H](Cc1ccc(C)cc1)C(=O)O; NMePhe(4-Cl) = CN[C@@H](Cc1ccc(Cl)cc1)C(=O)O; NMePhe(2-Cl) = CN[C@@H](Cc1ccccc1Cl)C(=O)O; NMedβ3hAla = C[C@H](CC(=O)[*:2])N(C)[*:1]; NMeGly(cPent) = CN[C@H](C(=O)O)C1CCCC1; Pro(4,4-F2) = O=C(O)[C@@H]1CC(F)(F)CN1; NMeGly(cBu) = CN[C@H](C(=O)O)C1CCC1; NMeCha = CN[C@@H](CC1CCCCC1)C(=O)O; Ala(cPr) = N[C@@H](CC1CC1)C(=O)O; Hyp = O=C(O)[C@@H]1C[C@@H](O)CN1; NMeCba = CN[C@@H](CC1CCC1)C(=O)O; NMeChg = CN[C@H](C(=O)O)C1CCCCC1; NMeI = CC[C@H](C)[C@H](NC)C(=O)O; NMeT = CN[C@H](C(=O)O)[C@@H](C)O; N(CH2CH2)2CF2 = FC1(F)CCN(*)CC1; Gly(cPr) = N[C@H](C(=O)O)C1CC1; NMeD = CN[C@@H](CC(=O)O)C(=O)O; NMeL = CN[C@@H](CC(C)C)C(=O)O; NMeV = CN[C@H](C(=O)O)C(C)C; d(β3hA) = C[C@@H](N)CC(=O)O; NMeS = CN[C@@H](CO)C(=O)O; NMeA = CN[C@@H](C)C(=O)O; Piperidide = C1CCN(*)CC1; Pyrrolidide = C1CCN(*)C1; dNMeA = CN[C@H](C)C(=O)O; Ac5c = NC1(C(=O)O)CCCC1; Aze = O=C(O)[C@@H]1CCN1; Ac4c = NC1(C(=O)O)CCC1; NBuGly = CCCCNCC(=O)O; Aib = CC(C)(N)C(=O)O; Isopentyl = CC(C)CC*; Sar = CNCC(=O)O

target: protein-protein interaction between Kras and SOS1 (biotin-tagged human Kras loaded with GDP, His-tagged human SOS1) (Homo sapiens (Human), UniProt P01116, G12D); experiment: Protein-protein interaction inhibition between Kras and SOS1 (KrasG12D-SOS PPI) using AlphaScreen; format: biochemical; conditions: AlphaScreen; biotin-tagged human Kras loaded with GDP, His-tagged human SOS1; read-out: KRAS G12D-SOS PPI IC50;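 note: kras produced in E. coli, Ni-coupled donor beads and streptavidin acceptor beads, excitation 680 nm with emission detected at 520–620 nm via singlet oxygen transfer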

SMILES | IC50
CCCCN1CC(=O)N(C)CC(=O)N(C)[C@@H](Cc2ccc(Cl)cc2)C(=O)N(C)CC(=O)N[C@@H](CCc2ccc(C(F)(F)F)cc2)C(=O)N(C)[C@@H](CC(C)C)C(=O)NC(C)(C)C(=O)N(C)[C@@H](CC(C)C)C(=O)N[C@H](C)CC(=O)N(C)[C@@H](C)C(=O)N[C@@H]([C@@H](C)CC)C1=O [Compound 436] (cyclo([Aib][NMeL][d(β3hA)][NMeA]I[NBuGly][Sar][NMePhe(4-Cl)][Sar][hPhe(4-CF3)][NMeL])) | 160 nM
CC[C@H](C)[C@@H]1NC(=O)[C@H](CC(C)C)N(C)C(=O)C[C@@H](C(=O)N2CCCCC2)N(C)C(=O)[C@H](C(C)C)N(C)C(=O)C2(CCCC2)NC(=O)[C@@H]2CCCN2C(=O)[C@H](CCc2ccc(C(F)(F)F)c(Cl)c2)NC(=O)CN(C)C(=O)[C@H](C2CCC2)N(C)C(=O)[C@@H]2CCN2C(=O)[C@H](C)N(C)C1=O [Compound 446] ([NMeL]I[NMeA][Aze][NMeGly(cBu)][Sar][hPhe(3-Cl-4-CF3)]P[Ac5c][NMeV][NMeD]-Piperidide; lactam N-11) | 1.8 nM
CC[C@H](C)[C@@H]1NC(=O)[C@H](CC(C)C)N(C)C(=O)C[C@@H](C)NC(=O)[C@H](C(C)C)N(C)C(=O)C2(CCCC2)NC(=O)[C@H](CC(=O)N2CCC(F)(F)CC2)N(C)C(=O)[C@H](CCc2ccc(C(F)(F)F)c(Cl)c2)NC(=O)CN(C)C(=O)[C@H](CC2CCCCC2)N(C)C(=O)CN(C)C(=O)CN(C)C1=O [Compound 452] (cyclo([Ac5c][NMeV][d(β3hA)][NMeL]I[Sar][Sar][NMeCha][Sar][hPhe(3-Cl-4-CF3)][NMeD](N(CH2CH2)2CF2))) | 80 nM
CC[C@H](C)[C@@H]1NC(=O)[C@H](CC(C)C)N(C)C(=O)C[C@@H](C(=O)N2CCCC2)NC(=O)[C@H]([C@@H](C)CC)N(C)C(=O)C2(CCCC2)NC(=O)[C@@H]2CCCN2C(=O)[C@H](CCc2ccc(C(F)(F)F)c(Cl)c2)NC(=O)CN(C)C(=O)[C@H](CC2CCCCC2)N(C)C(=O)[C@@H]2CCN2C(=O)[C@H](C)N(C)C1=O [Compound 453] ([NMeL]I[NMeA][Aze][NMeCha][Sar][hPhe(3-Cl-4-CF3)]P[Ac5c][NMeI]D-Pyrrolidide; lactam N-11) | 17 nM
CC[C@H](C)[C@@H]1NC(=O)[C@H](CC2CCC2)N(C)C(=O)C[C@@H](C)NC(=O)[C@H](C(C)C)N(C)C(=O)C2(CCCC2)NC(=O)[C@@H]2CCCN2C(=O)[C@H](CCc2ccc(C(F)(F)F)c(Cl)c2)NC(=O)CN(C)C(=O)[C@H](CC2CCCCC2)N(C)C(=O)[C@@H]2CCN2C(=O)[C@H](C)N(C)C1=O [Compound 455] (cyclo([Ac5c][NMeV][d(β3hA)][NMeCba]I[NMeA][Aze][NMeCha][Sar][hPhe(3-Cl-4-CF3)]P)) | 59 nM
CC[C@H](C)[C@@H]1NC(=O)[C@H](CC(C)C)N(C)C(=O)C[C@@H](C)N(C)C(=O)[C@H]([C@@H](C)CC)N(C)C(=O)C2(CCC2)NC(=O)[C@@H]2CC(F)(F)CN2C(=O)[C@H](CCc2ccc(C(F)(F)F)c(Cl)c2)NC(=O)CN(C)C(=O)[C@H](Cc2ccc(C(F)(F)F)cc2)N(C)C(=O)[C@@H]2CCN2C(=O)[C@H](C)N(C)C1=O [Compound 462] (cyclo([Ac4c][NMeI][NMedβ3hAla][NMeL]I[NMeA][Aze][NMePhe(4-CF3)][Sar][hPhe(3-Cl-4-CF3)][Pro(4,4-F2)])) | 12 nM
CC[C@H](C)[C@@H]1NC(=O)[C@H](C)N(C)C(=O)C[C@@H](C)NC(=O)[C@H](C2CCCC2)N(C)C(=O)C2(CCCC2)NC(=O)[C@@H]2CCCN2C(=O)[C@H](CCc2ccc(C(F)(F)F)c(Cl)c2)NC(=O)[C@@H](C)N(C)C(=O)[C@H](Cc2ccccc2Cl)N(C)C(=O)[C@@H]2CCN2C(=O)[C@H](C)N(C)C1=O [Compound 464] (cyclo([Ac5c][NMeGly(cPent)][d(β3hA)][NMeA]I[NMeA][Aze][NMePhe(2-Cl)][dNMeA][hPhe(3-Cl-4-CF3)]P)) | 130 nM
CC[C@H](C)[C@@H]1NC(=O)[C@H](CC(C)C)N(C)C(=O)C[C@@H](C(=O)N2CCCCC2)N(C)C(=O)[C@H](C(C)C)N(C)C(=O)C2(CCCC2)NC(=O)[C@@H]2CCCN2C(=O)[C@H](CCc2ccc(C(F)(F)F)c(Cl)c2)NC(=O)CN(C)C(=O)[C@H](COCCC(C)C)N(C)C(=O)[C@@H]2CCN2C(=O)[C@H](C)N(C)C1=O [Compound 470] ([NMeL]I[NMeA][Aze][NMeS](Isopentyl)[Sar][hPhe(3-Cl-4-CF3)]P[Ac5c][NMeV][NMeD]-Piperidide; lactam N-11) | 2.2 nM
CC(C)C[C@H]1C(=O)N[C@@H](CC2CC2)C(=O)N(C)[C@@H](C)C(=O)N2CC[C@H]2C(=O)N(C)[C@@H](CC2CCCCC2)C(=O)N(C)CC(=O)N[C@@H](CCc2ccc(C(F)(F)F)c(Cl)c2)C(=O)N2CCC[C@H]2C(=O)NC2(CCCC2)C(=O)N(C)[C@@H](C(C)C)C(=O)N[C@H](C)CC(=O)N1C [Compound 474] (cyclo([Ac5c][NMeV][d(β3hA)][NMeL][Ala(cPr)][NMeA][Aze][NMeCha][Sar][hPhe(3-Cl-4-CF3)]P)) | 280 nM
CC[C@H](C)[C@@H]1NC(=O)[C@H](CC(C)C)N(C)C(=O)C[C@@H](C)N(C)C(=O)[C@H](C2CCCCC2)N(C)C(=O)C2(CCC2)NC(=O)[C@@H]2CC(F)(F)CN2C(=O)[C@H](CCc2cc(F)c(C(F)(F)F)c(F)c2)NC(=O)CN(C)C(=O)[C@H](Cc2ccc(C)cc2)N(CC)C(=O)[C@@H]2CCN2C(=O)[C@H](C)N(C)C1=O [Compound 475] (cyclo([Ac4c][NMeChg][NMedβ3hAla][NMeL]I[NMeA][Aze][NEtPhe(4-Me)][Sar][hPhe(3,5-F2-4-CF3)][Pro(4,4-F2)])) | 51 nM
CC[C@H](C)[C@@H]1NC(=O)[C@H](CC(C)C)N(C)C(=O)C[C@@H](C(=O)N2CCCCC2)N(C)C(=O)[C@H](C(C)C)N(C)C(=O)C2(CCCC2)NC(=O)[C@@H]2CCCN2C(=O)[C@H](CCc2ccc(C(F)(F)F)c(Cl)c2)NC(=O)CN(C)C(=O)[C@H](CC2CCCCC2)N(C)C(=O)[C@@H]2CCN2C(=O)[C@H](C)N(C)C1=O [Compound 476] ([NMeL]I[NMeA][Aze][NMeCha][Sar][hPhe(3-Cl-4-CF3)]P[Ac5c][NMeV][NMeD]-Piperidide; lactam N-11) | 4.1 nM
CCO[C@@H]1C[C@H]2C(=O)NC3(CCCC3)C(=O)N(C)[C@@H](C3CCCCC3)C(=O)N(C)[C@H](C)CC(=O)N(C)[C@@H](CC(C)C)C(=O)N[C@@H]([C@@H](C)CC)C(=O)N(C)[C@@H](C)C(=O)N3CC[C@H]3C(=O)N(C)[C@@H](Cc3ccc(C(F)(F)F)cc3)C(=O)N(C)CC(=O)N[C@@H](CCc3cc(F)c(C(F)(F)F)c(F)c3)C(=O)N2C1 [Compound 486] (cyclo([Ac5c][NMeChg][NMedβ3hAla][NMeL]I[NMeA][Aze][NMePhe(4-CF3)][Sar][hPhe(3,5-F2-4-CF3)][Hyp](Et))) | 4.8 nM
CC[C@H](C)[C@@H]1NC(=O)[C@H](CC(C)C)N(C)C(=O)C[C@@H](C)NC(=O)[C@H](C(C)C)N(C)C(=O)C2(CCCC2)NC(=O)[C@@H]2CCCN2C(=O)[C@H](CCc2ccc(C(F)(F)F)c(Cl)c2)NC(=O)CN(C)C(=O)[C@H](CC2CCCCC2)N(C)C(=O)[C@@H]2CCN2C(=O)[C@H](C)N(C)C1=O [Compound 488, (5S,8S,11S,15R,18S,23aS,29S,35S,37aS)-8-((S)-sec-butyl)-29-(3-chloro-4-(trifluoromethyl)phenethyl)-35-(cyclohexylmethyl)-11-isobutyl-18-isopropyl-5,6,12,15,19,33,36-heptamethyldocosahydro-2H,4H-spiro[azeto[2,1-u]pyrrolo[2,1-i][1,4,7,10,13,16,19,22,25,28,31]undecaazacyclotetratriacontine-21,1′-cyclopentan]-4,7,10,13,17,20,23,28,31,34,37(14H,22H)-undecaone] (cyclo([Ac5c][NMeV][d(β3hA)][NMeL]I[NMeA][Aze][NMeCha][Sar][hPhe(3-Cl-4-CF3)]P)) | 29 nM
CC(C)C[C@H]1C(=O)N[C@@H](C2CC2)C(=O)N(C)[C@@H](C)C(=O)N2CC[C@H]2C(=O)N(C)[C@@H](CC2CCCCC2)C(=O)N(C)CC(=O)N[C@@H](CCc2ccc(C(F)(F)F)c(Cl)c2)C(=O)N2CCC[C@H]2C(=O)NC2(CCCC2)C(=O)N(C)[C@@H](C(C)C)C(=O)N[C@H](C)CC(=O)N1C [Compound 490] (cyclo([Ac5c][NMeV][d(β3hA)][NMeL][Gly(cPr)][NMeA][Aze][NMeCha][Sar][hPhe(3-Cl-4-CF3)]P)) | 240 nM
CC[C@H](C)[C@@H]1NC(=O)[C@H](CC(C)C)N(C)C(=O)C[C@@H](C)N(C)C(=O)[C@H](C2CCCC2)N(C)C(=O)C2(CCCC2)NC(=O)[C@@H]2CCCN2C(=O)[C@H](CCc2ccc(C(F)(F)F)c(Cl)c2)NC(=O)CN(C)C(=O)[C@H](Cc2ccc(C)cc2)N(CC)C(=O)[C@@H]2CCN2C(=O)[C@H](C)N(C)C1=O [Compound 494] (cyclo([Ac5c][NMeGly(cPent)][NMedβ3hAla][NMeL]I[NMeA][Aze][NEtPhe(4-Me)][Sar][hPhe(3-Cl-4-CF3)]P)) | 8.6 nM
CC[C@H](C)[C@@H]1NC(=O)[C@H](CC(C)C)N(C)C(=O)C[C@@H](C(=O)N2CCCCC2)N(C)C(=O)[C@H](C(C)C)N(C)C(=O)C2(CCCC2)NC(=O)[C@@H]2CCCN2C(=O)[C@H](CCc2ccc(C(F)(F)F)c(Cl)c2)NC(=O)CN(C)C(=O)[C@H](CC2CCCCC2)N(C)C(=O)[C@@H]2CCN2C(=O)[C@H]([C@@H](C)O)N(C)C1=O [Compound 496] ([NMeL]I[NMeT][Aze][NMeCha][Sar][hPhe(3-Cl-4-CF3)]P[Ac5c][NMeV][NMeD]-Piperidide; lactam N-11) | 10 nM
CO[C@H](C)[C@@H]1NC(=O)[C@H](CC(C)C)N(C)C(=O)C[C@@H](C(=O)N2CCCCC2)N(C)C(=O)[C@H](C(C)C)N(C)C(=O)C2(CCCC2)NC(=O)[C@@H]2CCCN2C(=O)[C@H](CCc2ccc(C(F)(F)F)c(Cl)c2)NC(=O)CN(C)C(=O)[C@H](CC2CCCCC2)N(C)C(=O)[C@@H]2CCN2C(=O)[C@H](C)N(C)C1=O [Compound 497] ([NMeL]T(Me)[NMeA][Aze][NMeCha][Sar][hPhe(3-Cl-4-CF3)]P[Ac5c][NMeV][NMeD]-Piperidide; lactam N-11) | 4.3 nM
